Test results published in patent US20230346820A1, “METHODS AND COMPOSITIONS FOR THE TREATMENT OF SARS-COV-2” (priority 2020, published 2023).
Structures can show the parent of a compound that is named as a salt. Where two headings read alike, the source gives them in different places.

Columns and labels:
[1] = test system: SARS-CoV-2; test: Time of addition (TOA) assay in HeLa-ACE2 cells; assay type: cell-based; settings: for activity when treatment initiated at 1 hpi: 10 μM, HeLa-ACE2, time course 4 to 24 hpi
[2] = test system: SARS-CoV-2
[3] = human, oral; cited from earlier work
[4] = test system: SARS-CoV-2; test: microbe, parasite or virus in culture
[5] = test system: SARS-CoV-2; test: Checkerboard synergy study with remdesivir (ZIP model, synergyfinder); assay type: cell-based
[6] = in vitro; settings: human
[7] = test system: HeLa-ACE2 cells; test: cells; assay type: cell-based, human; settings: Homo sapiens, HeLa-ACE2, read-out: HeLa-ACE-2 EC50 [μM] (Geomeans, n ≥ 2)
[8] = test system: SARS-CoV-2; test: SARS-CoV-2 primary ALI HBEC model; assay type: cell-based; settings: apical washes 72 hpi
Protocol: SARS-CoV-2 primary ALI HBEC model. Normal primary human bronchial epithelial cells (HBECs) (Lonza) were cultured in Millicell-96 cell culture insert plates with 1 μm PET filters (Sigma) at an air liquid interface for at least 4 weeks using PneumaCult™-ALI Medium (Stemcell Technologies). Briefly, the HBECs were first expanded in cell culture flasks before seeding 10,000 cells per well submerged in PneumaCult™-Ex Plus Medium. After 1 week, the cells were switched into PneumaCult™-ALI Medium and medium was removed from the apical surface. The air liquid interface was maintained, and the medium exchanged every 2-3 days for at least 4 weeks to allow for differentiation of the cells. Prior to infection, the apical surface was rinsed once with DPBS and compounds were added to the basolateral chamber. 20,000 PFU SARS-CoV-2 strain USA-WA1/2020 were added to the apical surface in 50 μL PBS and allowed to incubate for 2 h. The inoculum was then removed, and the cells rinsed once with DPBS. The medium was exchanged, and fresh compound added at 24 and 48 h post-infection. Apical washes were collected at 72 h post-infection by adding 100 μL DPBS to the apical surface for 15 minutes. RNA was isolated from the apical washes using the PureLink™ Pro 96 Viral RNA/DNA Purification Kit (Thermo Fisher) and analyzed for viral RNA levels by RT-qPCR using the SuperScript™ III Platinum™ One-Step qRT-PCR Kit (Thermo Fisher) and the 2019-nCoV N1 CDC Primers and Probe set (Integrated DNA Technologies). A standard curve was generated by isolating RNA from serial dilutions of the stock virus and used to determine the PFU equivalents/mL for each sample. The viral load reductions were then determined for each experimental compound treatment compared to the neutral DMSO control and plotted in log scale. Cytotoxicity was assessed by measuring LDH activity in the basolateral media using a Cytotoxicity Detection kit (LDH) (Sigma) following the manufacturer's instructions. […] Technical triplicates were run for both antiviral and cytotoxicity readouts. […]

[9] = test system: SARS-CoV-2; remark: listed apart in the source
[10] = mouse, cited from earlier work
[11] = rat, oral; cited from earlier work
[12] = dog, oral; cited from earlier work
[13] = Pharmacokinetic studies in Syrian hamsters; assay type: in vivo; settings: single 500 mg/kg PO dose, hamster plasma
Protocol: Pharmacokinetic Studies. Pharmacokinetic studies were conducted at Scripps Research Institute's Animal Models Core in accordance with IACUC guidelines (IACUC Protocol #09-0004-5). Eight-week old male Syrian Hamsters (Charles River) (three per group) were dosed PO as indicated for each compound and formulation. Plasma concentration of each test article was monitored up to 48 h. Nelfinavir was formulated in 10% DMSO/90% corn oil and MK-4482 was formulated in 10% PEG400/2.5% Cremaphor RH40 for both pharmacokinetic and efficacy studies.

[14] = test system: SARS-CoV-2; test: Golden Syrian Hamster SARS-CoV-2 efficacy model; assay type: in vivo; settings: for live viral titers in the lungs: day 5, plaque assay
[15] = COVID-19 patients; shortened from 15; cited from earlier work
[16] = in vivo; cited from earlier work
[17] = test system: SARS-CoV-2; test: microbe, parasite or virus in culture; settings: Severe acute respiratory syndrome coronavirus 2, Calu-3, read-out: Calu-3 SARS-CoV-2 EC50
[18] = test system: HeLa-ACE2 cells; settings: human
[19] = Severe acute respiratory syndrome coronavirus 2, HeLa-ACE2, 24 h, read-out: CoV-2 EC50 [μM] (Geomeans, n ≥ 2)
[20] = Severe acute respiratory syndrome coronavirus 2, HeLa-ACE2, read-out: SARS CoV-2 EC50 (μM)
[21] = Severe acute respiratory syndrome coronavirus 2, HeLa-ACE2, read-out: SARS-CoV-2 EC50
[22] = CC50 [μM] (Geomeans, n ≥ 2 except where indicated: *n = 1)

| SMILES | HeLa-ACE2 CC50/CoV-2 EC50 [2] | EC50 [4, 19] [µM] | EC50 [4, 20] [µM] | Synergy score with remdesivir (δ) ([5]; Table 3) | CC50 [6, 22] [µM] | CC50 ([6]; Uninfected HeLa-ACE2 CC50 (μM)) [µM] | EC50 [7] [µM] | activity in Calu-3 infection assay [9] | further results |
| --- | --- | --- | --- | --- | --- | --- | --- | --- | --- |
| Cc1cccc(/C=N/Nc2cc(N3CCOCC3)nc(OCCc3ccccn3)n2)c1 [Apilimod] | >4353.33 | < 0.006 | < 0.006 | 3.57 | > 27.8 | > 27.8 | > 9.6 | not active | classification as entry inhibitor in HeLa-ACE2 cells [1]: entry inhibitors; activity when treatment initiated at 1 hpi [1]: Loss of activity; increase in EC50 from MOI=1 to MOI=26 [2]: 3.7 fold; Cmax [3]: ~600 nM; t1/2 [3]: ~3 h (human, oral)(27); EC50 [4, 21]: 0.184 µM; interaction with remdesivir [5]: additive; CC50 ([6]; uninfected HeLa-ACE2 CC50): > 40 µM; viral replication in ALI-HBECs [8]: did not |
| COc1cc(-n2cnc3cc(-c4ccc(Cl)cc4)sc3c2=O)ccc1OCCN1CCCC1 [GW-803430] | 11.16 | 1.7 | – | – | 18.9 | – | – | – | t1/2 [10]: ~11 h (mouse)(38); Cmax [11]: ~585 nM |
| COc1ccc2cc1Oc1ccc(cc1)C[C@H]1c3cc(c(OC)cc3CCN1C)Oc1c(OC)c(OC)cc3c1[C@H](C2)N(C)CC3 [Hanfangchin A] | >16.08 | 1.18 | 1.18 | −3.61 | > 18.9 | > 18.9 | – | – | Cmax [11]: ~500 nM; t1/2 [11]: ~20 h (rats, oral)(31) |
| O=S(=O)(Nc1ccc(CCNC[C@H](O)c2cccnc2)cc1)c1ccc(-c2nc(-c3ccc(C(F)(F)F)cc3)cs2)cc1 [L 796568] | 5.28 | 1.04 | 1.04 | – | 5.51 | 5.51 | 3.14 | – | Cmax [12]: ~300 nM; t1/2 [12]: ~14 h (dog, oral)(32) |
| CC(C)C(=O)OC[C@H]1O[C@@H](n2ccc(NO)nc2=O)[C@H](O)[C@@H]1O [MK-4482/EIDD-2801/Molnupiravir, Molnupiravir] | >4.21 | > 9.45 | – | – | > 39.8 | – | – | – | activity in HeLa-ACE2 infection assay [2]: not active; time over HeLa-ACE2 and Calu-3 EC50 [13]: ≥ 7 h; viral reduction compared to vehicle control ([14]; 50 mg/kg PO BID, day 5): 99%; live viral titers in the lungs ([14]; 150 mg/kg PO BID): undetectable; host immune response (RNA Seq on hamster lungs) ([14]; 500 mg/kg PO BID): near-complete protection from host immune response; live viral titers in the lungs ([14]; 500 mg/kg PO BID): undetectable; lung histological examination ([14]; MK-4482-treated hamsters vs vehicle): protected |
| CCC(CC)COC(=O)[C@H](C)N[P@](=O)(OC[C@H]1O[C@@](C#N)(c2ccc3c(N)ncnn23)[C@H](O)[C@@H]1O)Oc1ccccc1 [Remdesivir] | 78.7 | 0.127 | 0.127 | – | – | > 8.46 | > 9.6 | – | median time to recovery [15]: 11 days; activity when treatment initiated at 1 hpi [1]: effectively blocked the infection; increase in EC50 from MOI=1 to MOI=26 [2]: 2.7 fold; EC50 ([2]; read-out: SARS-CoV-2 EC50): 300 nM; Cmax [3]: ~5000 nM; t1/2 [3]: ~1 h (human oral)(15); mortality of hospitalized COVID-19 patients [16]: failed to reduce mortality; EC50 [4, 21]: 0.194 ± 0.02 µM; CC50 ([6]; uninfected HeLa-ACE2 CC50): > 40 µM; EC50 [17]: 444 nM; CC50 [18]: 9970 nM; viral replication in ALI-HBECs [8]: inhibited viral replication |
| NCCc1cn(S(=O)(=O)c2c(Cl)nc3sccn23)c2ccccc12 [SAX-187] | 4.02 | 1.85 | 1.85 | – | 7.43 | 7.43 | > 9.37 | – | Cmax [11]: 400 nM; t1/2 [11]: ~3 h (rat, oral)(39) |
| CCN1CCC(c2cc(C)c3nc(-c4cc5c(C)nc(C)cn5n4)cc(=O)n3c2)CC1 [SMN-C3] | 5.12 | 1.4 | 1.4 | −0.37 | 7.16 | 7.16 | > 8.14 | – | Cmax ([10]; oral): ~2000 nM; Synergy score with remdesivir (δ) ([5]; Table 1, ZIP model, δ>10 synergy, δ<−10 antagonism, between additive): −0.365 |
| CC[C@H]1OC(=O)[C@H](C)[C@@H](O[C@H]2C[C@@](C)(OC)[C@@H](O)[C@H](C)O2)[C@H](C)[C@@H](O[C@@H]2O[C@H](C)C[C@H](N(C)C)[C@H]2O)[C@](C)(O)C[C@@H](C)CN(C)[C@H](C)[C@@H](O)[C@]1(C)O [azithromycin] | – | – | – | – | – | – | – | not active | classification as entry inhibitor in HeLa-ACE2 cells [1]: entry inhibitors |
| CCN(CCO)CCCC(C)Nc1ccnc2cc(Cl)ccc12 (centres unmarked) [hydroxychloroquine, nasal, hydroxychloroquine] | >40.04 | 0.458 | 0.458 | −1.572 | > 18.3 | > 18.3 | – | not active | classification as entry inhibitor in HeLa-ACE2 cells [1]: entry inhibitors; activity when treatment initiated at 1 hpi [1]: Loss of activity; Cmax [3]: ~1700 nM; t1/2 [3]: ~55 h (human oral)(18); mortality of hospitalized COVID-19 patients [16]: failed to reduce mortality |
| N=C(N)c1ccc2cc(OC(=O)c3ccc(N=C(N)N)cc3)ccc2c1 [nafamostat mesylate] | – | – | – | – | – | – | – | active | activity in HeLa-ACE2 infection assay ([2]; text b101-b103): not active; viral replication in ALI-HBECs [8]: inhibited viral replication |
| Cc1c(O)cccc1C(=O)N[C@@H](CSc1ccccc1)[C@H](O)CN1C[C@H]2CCCC[C@H]2C[C@H]1C(=O)NC(C)(C)C [nelfinavir] | – | – | – | – | – | – | – | – | time over Calu-3 SARS-CoV-2 EC50 [13]: ~3 h; protection from weight loss and viral replication ([14]; 500 mg/kg PO BID): failed to protect animals from weight loss and viral replication |
